Test results published in patent US20070135383A1, “Phospholipase inhibitors, including multi-valent phospholipase inhibitors, and use thereof, including as lumen-localized phospholipase inhibitors” (priority 2005, published 2007).
pIC50: −log10 of the molar value.

Columns and labels:
Test in all cases: Fluorimetric PPyrPM assay for group 1B PLA2 inhibition (Example 12)
Format in all cases: biochemical
[1] = molecular target: T1, mouse group 1B PLA2 (mps PLA2) (Mus musculus, UniProt Q9Z0Y2); settings: mouse pancreas secreted PLA2; for inhibition at 15 µM: read-out: ILYPSA % inhibition at 15 μM mps PLA2; for pIC50: read-out: ILYPSA IC50 mps PLA2
T1 construct: made in house; host or cells: E. coli
T1 sequence (Q9Z0Y2 23-146): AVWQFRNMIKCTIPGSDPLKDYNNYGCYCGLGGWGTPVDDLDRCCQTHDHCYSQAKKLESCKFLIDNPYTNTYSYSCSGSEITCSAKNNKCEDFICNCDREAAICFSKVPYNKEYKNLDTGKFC
Text: (§1) In this example, a fluorimetric assay procedure was used to evaluate the indole and indole-related compounds of the invention as inhibitors of group 1B phospholipase A2 (PLA2) from human, mouse and porcine. A description of this assay is found in articles: Leslie, C C and Gelb, M H (2004) Methods in Molecular Biology “Assaying phospholipase A2 activity”, 284:229-242; Singer, A G, et al. (2002) Journal of Biological Chemistry “Interfacial kinetic and binding properties of the complete set of human and mouse groups I, II, V, X, and XII secreted phospholipases A2”, 277:48535-48549, which are incorporated herein as references.
(§2) In general, this assay used a phosphatidylmethanol substrate with a pyrene fluorophore on the terminal end of the sn-2 fatty acyl chain. Without being bound by theory, close proximity of the pyrenes from neighboring phospholipids in a phospholipid vesicle caused the spectral properties to change relative to that of monomeric pyrene. Bovine serum albumin was present in the aqueous phase and captured the pyrene fatty acid when it is liberated from the glycerol backbone owing to the PLA2-catalyzed reaction. However, a potent inhibitor can inhibit the liberation of pyrene fatty acid from the glycerol backbone. […] The effect of a given inhibitor and inhibitor concentration on human, mouse and porcine phospholipase was determined.
(§3) Recombinant human and mouse group 1B PLA2 were cloned and expressed in E. coli as insoluble inclusion bodies. The inclusion bodies were isolated and purified by sonicating cell pellet in lysis buffer (50 mM Tris-HCl pH 7.0, 250 mM NaCl, 0.5% Triton 100), centrifugation at 12,000×g, and washing three times in washing buffer (20 mM Tris-HCl pH 7.0, 250 mM NaCl, 0.5% Triton 100). Then the inclusion bodies were dissolved in dissolving buffer (50 mM Tris-HCl pH 7.0, 250 mM NaCl, 6 M Guanidine-HCl, 1 mM DTT) and dialyzed four times against 10 volumes of refolding buffer (20 mM Tris-HCl pH 7.0, 250 mM NaCl, 0.5M Guanidine-HCl, 5% (w/w) Glycerol, 2 mM reduced glutathione and 0.4 mM oxidized glutathione) at 4° C. The correctly refolded proteins were concentrated using Amicon Stirred cell under nitrogen pressure (<70 psi) and dialyzed against 10 volumes of 50 mM Tris-HCl pH 7.0, 250 mM NaCl and 5% (w/w) glycerol. Human and mouse group 1B PLA2 were further purified by High S ion exchange and gel filtration columns.
(§4) The following reagents and equipments were obtained from commercial vendors: • 1. Porcine group 1B phospholipase A2 • 2. 1-hexadecanoyl-2-(1-pyrenedecanoyl)-sn-glycero-3-phosphomethanol (PPyrPM) • 3. Bovine serum albumin (BSA, fatty acid free) • 4. 2-Amino-2-(hydroxymethyl)-1,3-propanediol, hydrochloride (Tris-HCl) • 5. Calcium chloride • 6. Potassium chloride • 7. Solvents: DMSO, toluene, isopropanol, ethanol • 8. Molecular Devices SPECTRAmax microplate spectrofluorometer • 9. Costar 96 well black wall/clear bottom plate
(§5) The following reagents were prepared: • 10. PPyrPM stock solution (1 mg/ml) in toluene:isopropanol (1:1) • 11. ILY104 inhibitor stock solution (10 mM) in DMSO • 12. 3% (w/v) bovine serum albumin (BSA) • 13. Stock buffer: 50 mM Tris-HCl, pH 8.0, 50 mM KCl and 1 mM CaCl2
(§6) The following procedure was performed to evaluate the inhibitory potency of the evaluated compounds. • 14. An assay buffer was prepared by adding 3 ml 3% BSA to 47 ml stock buffer. • 15. Solution A was prepared by adding serially diluted inhibitors to the assay buffer. Inhibitors were three-fold diluted in stock buffer in a series of 8 from 15 uM. • 16. Solution B was prepared by adding human, mouse or porcine PLA2 to the assay buffer. This solution was prepared immediately before use to minimize enzyme activity loss. • 17. Solution C was prepared by adding 30 ul PPyrPM stock solution to 90 ul ethanol, and then all 120 ul of PPyrPM solution was transferred drop-wise over approximately 1 min to the continuously stirring 8.82 ml assay buffer to form a final concentration of 4.2 uM PPyrPM vesicle solution. • 18. […]

[2] = molecular target: T2, human group 1B PLA2 (hps PLA2) (Homo sapiens, UniProt P04054); settings: human pancreas secreted PLA2; for inhibition at 15 µM: read-out: ILYPSA % inhibition at 15 μM hps PLA2; for pIC50: read-out: ILYPSA IC50 hps PLA2
T2 construct: made in house; host or cells: E. coli
T2 sequence (P04054 23-148): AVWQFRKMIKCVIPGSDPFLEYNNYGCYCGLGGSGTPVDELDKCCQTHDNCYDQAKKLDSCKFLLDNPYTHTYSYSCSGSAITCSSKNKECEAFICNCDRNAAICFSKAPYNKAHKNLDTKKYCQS
Text: as §1, §2, §3, §4, §5, §6

[3] = molecular target: T3, porcine group 1B PLA2 (pps PLA2) (Sus scrofa, UniProt P00592); settings: porcine pancreas secreted PLA2; for pIC50: read-out: ILYPSA IC50 pps PLA2; for inhibition at 15 µM: read-out: ILYPSA % inhibition at 15 μM pps PLA2
T3 construct: purchased
T3 sequence (P00592 23-146): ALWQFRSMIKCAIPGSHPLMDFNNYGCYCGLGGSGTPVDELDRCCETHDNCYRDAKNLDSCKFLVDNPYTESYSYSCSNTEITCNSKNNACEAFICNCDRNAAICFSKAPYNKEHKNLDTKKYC
Text: as §1, §2, §4, §5
The following procedure was performed to evaluate the inhibitory potency of the evaluated compounds. • 14. An assay buffer was prepared by adding 3 ml 3% BSA to 47 ml stock buffer. • 15. Solution A was prepared by adding serially diluted inhibitors to the assay buffer. Inhibitors were three-fold diluted in stock buffer in a series of 8 from 15 uM. • 16. Solution B was prepared by adding human, mouse or porcine PLA2 to the assay buffer. This solution was prepared immediately before use to minimize enzyme activity loss. • 17. Solution C was prepared by adding 30 ul PPyrPM stock solution to 90 ul ethanol, and then all 120 ul of PPyrPM solution was transferred drop-wise over approximately 1 min to the continuously stirring 8.82 ml assay buffer to form a final concentration of 4.2 uM PPyrPM vesicle solution. • 18. The SPECTRAmax microplate spectrofluorometer was set at 37° C. • 19. 100 ul of solution A was added to each inhibition assay well of a costar 96 well black wall/clear bottom plate • 20. 100 ul of solution B was added to each inhibition assay well of a costar 96 well black wall/clear bottom plate. • 21. 100 ul of solution C was added to each inhibition assay well of a costar 96 well black wall/clear bottom plate. • 22. The plate was incubated inside the spectrofluorometer chamber for 3 min. • 23. The fluorescence was read using an excitation of 342 nm and an emission of 395 nm.
Evaluated compounds were tested in duplicate and their values were averaged to plot the inhibition curve and calculate the IC50. Compared to uninhibited controls, lower fluorescent signal at an emission of 395 nm in test reactions evidenced inhibition of PLA2. […] Compounds initially found to be active were repeated to confirm their inhibitory activity. […]

SMILES	inhibition at 15 µM [1] [%]	inhibition at 15 µM [2] [%]	pIC50 [3]	pIC50 [1]	pIC50 [2]	inhibition at 15 µM [3] [%]
Cc1c(C(=O)C(N)=O)c2c(OC(CCC(=O)O)C(=O)O)cccc2n1Cc1ccccc1 (stereo not drawn) [ILY-IV-33, 2-(3-Aminooxalyl-1-benzyl-2-methyl-1H-indol-4-yloxy)-pentanedioic acid]	50.3	35.9	5.42			
Cc1c(C(=O)C(N)=O)c2c(OCC(=O)O)ccc(N)c2n1Cc1ccccc1 [ILY-IV-35]			6.49	5.76	5.05	
Cc1c(C(=O)C(N)=O)c2c(OCC(=O)O)ccc(NS(C)(=O)=O)c2n1Cc1ccccc1 [ILY-IV-37]			6.55	5.99	5.46	
Cc1c(C(=O)C(N)=O)c2c(OC(C(N)=O)C(C)C)cccc2n1Cc1ccccc1 (stereo not drawn) [ILY-IV-45, 2-(3-(2-amino-2-oxoacetyl)-1-benzyl-2-methyl-1H-indol-4-yloxy)-3-methylbutanamide]	65.5	74	5.99			
Cc1c(C(=O)C(N)=O)c2c(OC(CC(C)C)C(=O)O)cccc2n1Cc1ccccc1 (stereo not drawn) [ILY-IV-47, 2-(3-Aminooxalyl-1-benzyl-2-methyl-1H-indol-4-yloxy)-4-methyl-pentanoic acid]			7.70	5.61	5.53	
Cc1c(C(=O)C(N)=O)c2c(OC(F)(C(=O)O)C(F)(F)Br)cccc2n1Cc1ccccc1 (stereo not drawn) [ILY-IV-55, 2-(3-(2-amino-2-oxoacetyl)-1-benzyl-2-methyl-1H-indol-4-yloxy)-3-bromo-2,3,3-trifluoropropanoic acid]	42.6	34				74.5
COC(=O)C(Oc1cccc2c1c(C(=O)C(N)=O)c(C)n2Cc1ccccc1)C(=O)O (stereo not drawn) [ILY-IV-59]	35.7	10.2				56.8
CCCCCCCCn1c(C)c(C(=O)C(N)=O)c2c(OCC(=O)O)cccc21 [ILY-V-2]			7.52	6.68	6.19	
Cc1c(C(=O)C(N)=O)c2c(OCC(=O)O)cccc2n1Cc1ccc(-c2ccccc2)cc1 [ILY-V-3]			6.68	6.11	5.90	
COc1cccc(Cn2c(C)c(C(=O)C(N)=O)c3c(OCC(=O)O)cccc32)c1 [ILY-V-8]			7.40	6.01	5.49	
Cc1c(C(=O)C(N)=O)c2c(OCC(=O)O)cccc2n1Cc1ccc2ccccc2c1 [ILY-V-9]			7.22	6.15	5.68	
C=CCn1c(C)c(C(=O)C(N)=O)c2c(OCC(=O)O)cccc21 [ILY-V-10]		64	6.34	5.49		
Cc1c(C(=O)C(N)=O)c2c(OCC(=O)O)cccc2n1CCCCCCCCSCCCCSCCCCCCCCn1c(C)c(C(=O)C(N)=O)c2c(OCC(=O)O)cccc21 [ILY-V-23, 2,2′-(1,1′-(8,8′-(butane-1,4-diylbis(sulfanediyl))bis(octane-8,1-diyl))bis(3-(2-amino-2-oxoacetyl)-2-methyl-1H-indole-4,1-diyl))bis(oxy)diacetic acid]			5.95	6.26	5.67	
Cc1c(C(=O)C(N)=O)c2c(OCC(=O)O)cccc2n1CCCCCCCCCCCCSCCCCSCCCCCCCCCCCCn1c(C)c(C(=O)C(N)=O)c2c(OCC(=O)O)cccc21 [ILY-V-25, 2,2′-(1,1′-(12,12′-(Butane-1,4-diylbis(sulfanediyl))bis(dodecane-12,1-diyl))bis(3-(2-amino-2-oxoacetyl)-2-methyl-1H-indole-4,1-diyl))bis(oxy)diacetic acid]			6.72	6.46	6.82	
Cc1c(C(=O)C(N)=O)c2c(OCC(=O)O)cccc2n1CCCCCCCCCCCCOc1ccccc1OCCCCCCCCCCCCn1c(C)c(C(=O)C(N)=O)c2c(OCC(=O)O)cccc21 [ILY-V-27, [3-Aminooxalyl-1-(12-{2-[12-(3-aminooxalyl-4-carboxymethoxy-2-methyl-indol-1-yl)-dodecyloxy]-phenoxy}-dodecyl)-2-methyl-1H-indol-4-yloxy]-acetic acid]			6.82	6.70	6.82	
Cc1c(C(=O)C(N)=O)c2c(OCC(=O)O)cccc2n1CCCCCCCCCCCCSSCCCCCCCCCCCCn1c(C)c(C(=O)C(N)=O)c2c(OCC(=O)O)cccc21 [ILY-V-28, 2,2′-(1,1′-(12,12′-disulfanediylbis(dodecane-12,1-diyl))bis(3-(2-amino-2-oxoacetyl)-2-methyl-1H-indole-4,1-diyl))bis(oxy)diacetic acid]			6.14	6.00	6.22	
Cc1c(C(=O)C(N)=O)c2c(OCC(=O)O)cccc2n1CCCCCCCCCCCCN(CCCCCCCCCCCCn1c(C)c(C(=O)C(N)=O)c2c(OCC(=O)O)cccc21)Cc1ccccc1 [ILY-V-31, 2,2′-(1,1′-(12,12′-(benzylazanediyl)bis(dodecane-12,1-diyl))bis(3-(2-amino-2-oxoacetyl)-2-methyl-1H-indole-4,1-diyl))bis(oxy)diacetic acid]			7.70	7.52	7.00	
Cc1c(C(=O)C(N)=O)c2c(O)cccc2n1CCCCCCCCCCCCSCCCCCCCCCCCCn1c(C)c(C(=O)C(N)=O)c2c(O)cccc21 [ILY-V-35]			5.68	5.44	5.82	
Cc1c(C(=O)C(N)=O)c2c(OCC(=O)O)cccc2n1CCCCCCCCCCCCOc1ccc(-c2ccc(OCCCCCCCCCCCCn3c(C)c(C(=O)C(N)=O)c4c(OCC(=O)O)cccc43)cc2)cc1 [ILY-V-36, [3-Aminooxalyl-1-(12-{4′-[12-(3-aminooxalyl-4-carboxymethoxy-2-methyl-indol-1-yl)-dodecyloxy]-biphenyl-4-yloxy}-dodecyl)-2-methyl-1H-indol-4-yloxy]-acetic acid]			6.36	6.04	5.90	
